This is an account of results in the Kinase Knowledgebase extract (Sharma et al. 2016).

Assay [1] concerns the target EGFR (human) (UniProt P00533). To be noted: mda-mb-231.
Assay [2] concerns the target EGFR (human) (UniProt P00533). To be noted: mda-mb-361.
Assay [3] deals with EGFR (human) (UniProt P00533). To be noted: mda-mb-231. The source holds these as a separate data set.
Assay [4] addresses EGFR (human) (UniProt P00533). Particulars: mda-mb-231. This is another data set of the same source.

As a reminder, the IC50 is the concentration that gives 50% inhibition. Read a high IC50 as weaker potency.

Sequence of EGFR (human) (P00533 whole entry, looked up): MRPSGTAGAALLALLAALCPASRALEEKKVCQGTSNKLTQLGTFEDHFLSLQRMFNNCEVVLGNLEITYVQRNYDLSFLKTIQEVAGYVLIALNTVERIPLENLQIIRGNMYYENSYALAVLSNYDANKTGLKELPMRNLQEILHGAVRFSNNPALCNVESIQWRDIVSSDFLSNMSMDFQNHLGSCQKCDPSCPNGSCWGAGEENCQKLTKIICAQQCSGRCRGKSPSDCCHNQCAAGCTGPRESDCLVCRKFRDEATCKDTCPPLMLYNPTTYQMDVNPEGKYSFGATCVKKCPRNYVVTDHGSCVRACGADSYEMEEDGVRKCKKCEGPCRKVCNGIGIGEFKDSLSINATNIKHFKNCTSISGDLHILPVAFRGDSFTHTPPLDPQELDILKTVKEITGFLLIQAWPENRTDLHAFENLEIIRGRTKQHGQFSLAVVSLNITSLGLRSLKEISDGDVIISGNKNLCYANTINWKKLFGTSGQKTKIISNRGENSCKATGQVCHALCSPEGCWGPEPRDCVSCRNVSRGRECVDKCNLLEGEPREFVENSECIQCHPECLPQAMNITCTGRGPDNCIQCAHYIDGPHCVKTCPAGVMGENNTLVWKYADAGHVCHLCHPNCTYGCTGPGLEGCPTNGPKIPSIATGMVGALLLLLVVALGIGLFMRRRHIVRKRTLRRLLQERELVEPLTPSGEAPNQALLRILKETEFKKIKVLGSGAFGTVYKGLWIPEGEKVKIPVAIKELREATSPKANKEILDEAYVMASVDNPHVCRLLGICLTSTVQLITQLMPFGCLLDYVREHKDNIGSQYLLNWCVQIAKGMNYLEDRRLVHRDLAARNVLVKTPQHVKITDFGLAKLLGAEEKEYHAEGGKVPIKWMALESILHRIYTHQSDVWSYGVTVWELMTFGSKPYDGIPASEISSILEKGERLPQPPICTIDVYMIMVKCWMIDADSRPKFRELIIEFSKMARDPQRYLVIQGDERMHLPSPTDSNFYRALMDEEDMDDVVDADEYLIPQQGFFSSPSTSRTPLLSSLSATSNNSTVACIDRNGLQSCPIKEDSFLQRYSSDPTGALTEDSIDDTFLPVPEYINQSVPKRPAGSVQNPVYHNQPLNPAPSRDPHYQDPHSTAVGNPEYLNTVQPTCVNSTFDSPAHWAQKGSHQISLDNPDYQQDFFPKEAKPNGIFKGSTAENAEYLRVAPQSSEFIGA

Take `C/C(O)=C(\C#N)C(=O)Nc1ccccc1F`: the values for the IC50 at EGFR (human) [1], at EGFR (human) [2] and on EGFR (human) [3] were more than 300 µM, more than 300 µM and 74.5 µM, respectively.

In the case of `C/C(O)=C(\C#N)C(=O)Nc1ccc(C(F)(F)F)cc1`, the IC50 against EGFR (human) [1] turned out to be 199 µM; at EGFR (human) [4], 97 µM; against EGFR (human) [2] it was 190 µM; at EGFR (human) [3] it was 5.4 µM.

`C/C(O)=C(\C#N)C(=O)Nc1ccc(Br)cc1`: the IC50 against EGFR (human) [1] was more than 300 µM; on EGFR (human) [2], more than 300 µM; at EGFR (human) [3] it was more than 100 µM.

Turning to `C/C(O)=C(\C#N)C(=O)Nc1ccc(OC(F)(F)F)cc1`, the IC50 on EGFR (human) [1] turned out to be 53.4 µM; at EGFR (human) [4], 28.4 µM; at EGFR (human) [2], 26.3 µM.

As to `C/C(O)=C(\C#N)C(=O)Nc1ccc(F)cc1`, the IC50 on EGFR (human) [1] is more than 300 µM; against EGFR (human) [2], more than 300 µM; on EGFR (human) [3], more than 100 µM.

For the compound `C/C(O)=C(\C#N)C(=O)Nc1ccccc1`, the IC50 at EGFR (human) [1] is more than 300 µM; against EGFR (human) [2], more than 300 µM; on EGFR (human) [3], more than 100 µM.

With `C/C(O)=C(\C#N)C(=O)Nc1ccccc1Cl`, the IC50 against EGFR (human) [1] is more than 300 µM; against EGFR (human) [2], more than 300 µM; against EGFR (human) [3], more than 100 µM.

In the case of `C/C(O)=C(\C#N)C(=O)Nc1cccc(C(F)(F)F)c1`, the IC50 on EGFR (human) [1] is more than 300 µM; against EGFR (human) [2] it was more than 300 µM; on EGFR (human) [3], more than 100 µM.

Take `C/C(O)=C(\C#N)C(=O)Nc1cc(Br)ccc1Br`: the IC50 is more than 300 µM on EGFR (human) [1], more than 300 µM against EGFR (human) [2] and more than 100 µM against EGFR (human) [3].

For the compound `C/C(O)=C(\C#N)C(=O)Nc1ccccc1Br`, the IC50 against EGFR (human) [1] is more than 300 µM; against EGFR (human) [2] it was more than 300 µM; against EGFR (human) [3] it was more than 100 µM.

For the compound `C/C(O)=C(\C#N)C(=O)Nc1ccc(Cl)cc1`, the IC50 at EGFR (human) [1] was more than 300 µM; at EGFR (human) [2] it was more than 300 µM; against EGFR (human) [3], more than 100 µM.

Consider `C/C(O)=C(\C#N)C(=O)Nc1cccc(Cl)c1`, for which the IC50 at EGFR (human) [1] was more than 300 µM; against EGFR (human) [2] it was more than 300 µM; on EGFR (human) [3], more than 100 µM.

Turning to `C/C(O)=C(\C#N)C(=O)Nc1cccc(F)c1`, the results for the IC50 against EGFR (human) [1], against EGFR (human) [2] and against EGFR (human) [3] were more than 300 µM, more than 300 µM and more than 100 µM, respectively.

`C/C(O)=C(\C#N)C(=O)Nc1ccccc1C(F)(F)F`: the IC50 is more than 300 µM on EGFR (human) [1], more than 300 µM on EGFR (human) [2] and more than 100 µM against EGFR (human) [3].

Regarding `C/C(O)=C(\C#N)C(=O)Nc1cccc(Br)c1`, the IC50 is more than 300 µM against EGFR (human) [1], more than 300 µM at EGFR (human) [2] and more than 100 µM against EGFR (human) [3].
